The results in this text go back to ChEMBL document CHEMBL1201862, “PubChem BioAssay data set” (2004).

For assay [1], the target named is T1, Caspase-6 (Homo sapiens, UniProt P55212).
T1 sequence (P55212 whole entry): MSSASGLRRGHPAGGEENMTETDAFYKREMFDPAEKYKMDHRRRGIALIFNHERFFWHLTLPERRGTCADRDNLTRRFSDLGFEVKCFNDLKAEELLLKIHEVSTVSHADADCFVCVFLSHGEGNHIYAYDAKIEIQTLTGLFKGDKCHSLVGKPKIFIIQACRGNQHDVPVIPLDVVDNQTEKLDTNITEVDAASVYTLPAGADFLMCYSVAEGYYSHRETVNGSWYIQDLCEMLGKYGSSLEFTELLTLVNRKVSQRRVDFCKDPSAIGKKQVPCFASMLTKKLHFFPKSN
The assay can be described thus: human caspase-6 inhibitors, dose response, biochemical, VEID-R110 fluorescence, cherry-pick (AID 720632).

Assay [2] addresses T2, Protein RecA (Mycobacterium tuberculosis, UniProt P9WHJ3).
T2 sequence (P9WHJ3 whole entry): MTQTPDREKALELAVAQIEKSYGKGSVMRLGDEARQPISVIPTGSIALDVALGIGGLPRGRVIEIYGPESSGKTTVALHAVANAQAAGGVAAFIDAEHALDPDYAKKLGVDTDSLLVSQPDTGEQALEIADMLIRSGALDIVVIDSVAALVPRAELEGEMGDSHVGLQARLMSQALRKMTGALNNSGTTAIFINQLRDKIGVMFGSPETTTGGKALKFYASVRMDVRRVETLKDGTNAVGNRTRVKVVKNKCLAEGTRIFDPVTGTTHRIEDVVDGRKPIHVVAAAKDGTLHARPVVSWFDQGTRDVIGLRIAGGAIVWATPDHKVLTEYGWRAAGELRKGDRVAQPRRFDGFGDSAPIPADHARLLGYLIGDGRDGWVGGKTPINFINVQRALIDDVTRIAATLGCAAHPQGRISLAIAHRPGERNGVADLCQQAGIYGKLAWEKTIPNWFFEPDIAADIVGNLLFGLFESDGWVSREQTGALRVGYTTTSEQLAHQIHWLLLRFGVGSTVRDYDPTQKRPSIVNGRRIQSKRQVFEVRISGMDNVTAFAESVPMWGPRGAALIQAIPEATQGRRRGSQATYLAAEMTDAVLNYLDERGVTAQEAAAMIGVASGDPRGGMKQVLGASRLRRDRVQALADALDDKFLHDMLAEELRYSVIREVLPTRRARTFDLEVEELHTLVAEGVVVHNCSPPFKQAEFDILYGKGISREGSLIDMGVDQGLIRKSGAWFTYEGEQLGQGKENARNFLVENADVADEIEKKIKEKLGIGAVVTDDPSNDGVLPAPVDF
The assay can be described thus: Fluorescence Cell-Free Homogeneous Dose Retest to Identify Inhibitors of RecA-Intein Splicing Activity. [Related pubchem assays (depositor defined):AID2097, AID2223, AID489010, AID492950]. It is filed as functional.

Assay [3] is described as follows: CAL PDZ domain peptide-binding inhibitors, dose response, biochemical, fluorescence polarization, untagged CAL PDZ, cherry-pick (AID 602267). Type of assay: functional. For orientation: Fluorescence polarisation rises when a labelled molecule tumbles more slowly, as on binding a larger partner.
In assay [4] the target is T3, Tyrosyl-DNA phosphodiesterase 2 (Homo sapiens, UniProt O95551).
T3 sequence (O95551 whole entry): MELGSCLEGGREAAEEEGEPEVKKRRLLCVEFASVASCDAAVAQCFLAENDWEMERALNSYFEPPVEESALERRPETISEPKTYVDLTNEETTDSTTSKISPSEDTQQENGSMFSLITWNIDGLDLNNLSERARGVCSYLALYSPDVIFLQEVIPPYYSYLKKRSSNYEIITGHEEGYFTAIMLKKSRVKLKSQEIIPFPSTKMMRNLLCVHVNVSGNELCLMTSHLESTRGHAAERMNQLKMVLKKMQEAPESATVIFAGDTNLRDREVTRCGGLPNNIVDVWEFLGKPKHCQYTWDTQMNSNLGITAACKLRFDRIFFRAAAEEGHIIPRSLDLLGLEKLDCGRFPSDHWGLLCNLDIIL
Briefly: human TDP2 enzyme inhibitors, dose response, biochemical, epi absorbance, IC50 (AID 743297).

The target of assay [5] is T4, Hexokinase HKDC1 (Homo sapiens, UniProt Q2TB90).
T4 sequence (Q2TB90 whole entry): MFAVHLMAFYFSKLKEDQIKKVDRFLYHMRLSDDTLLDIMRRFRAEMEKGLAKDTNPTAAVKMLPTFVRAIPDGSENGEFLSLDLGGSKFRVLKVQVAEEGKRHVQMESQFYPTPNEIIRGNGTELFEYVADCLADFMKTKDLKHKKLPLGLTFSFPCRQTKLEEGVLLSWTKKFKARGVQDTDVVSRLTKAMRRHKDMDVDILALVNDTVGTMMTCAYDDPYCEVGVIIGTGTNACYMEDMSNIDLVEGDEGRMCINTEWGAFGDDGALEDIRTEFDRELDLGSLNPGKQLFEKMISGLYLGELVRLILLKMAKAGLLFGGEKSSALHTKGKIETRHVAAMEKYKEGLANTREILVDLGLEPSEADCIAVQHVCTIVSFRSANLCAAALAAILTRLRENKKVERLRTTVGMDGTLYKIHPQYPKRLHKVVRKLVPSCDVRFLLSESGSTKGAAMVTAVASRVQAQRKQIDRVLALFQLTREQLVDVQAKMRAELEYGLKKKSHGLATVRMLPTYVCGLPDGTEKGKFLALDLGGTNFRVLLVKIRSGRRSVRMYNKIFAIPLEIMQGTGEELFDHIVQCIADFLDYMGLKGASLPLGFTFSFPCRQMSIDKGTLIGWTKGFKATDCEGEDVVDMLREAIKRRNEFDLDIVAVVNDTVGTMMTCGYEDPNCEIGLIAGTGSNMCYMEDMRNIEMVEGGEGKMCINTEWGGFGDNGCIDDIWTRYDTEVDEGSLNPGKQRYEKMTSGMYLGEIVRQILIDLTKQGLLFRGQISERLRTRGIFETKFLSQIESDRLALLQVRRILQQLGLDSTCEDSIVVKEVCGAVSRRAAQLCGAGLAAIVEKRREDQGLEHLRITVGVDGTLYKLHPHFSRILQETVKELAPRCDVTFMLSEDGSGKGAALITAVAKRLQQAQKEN
The assay can be described thus: SAR analysis of small molecule inhibitors of hexokinase domain containing I (HKDC1) - Set 3. [Related pubchem assays (depositor defined):AID493160, AID493190]. It is filed as functional.

Assay [6] concerns the target T4, Hexokinase HKDC1. Briefly: HKDC1 hexokinase inhibitors, dose response, biochemical, W721R variant (AID 504729). Type of assay: functional.
Assay [7] has as its target T5, Replicative DNA helicase DnaB (Mycobacterium tuberculosis, UniProt P9WMR3).
T5 sequence (P9WMR3 whole entry): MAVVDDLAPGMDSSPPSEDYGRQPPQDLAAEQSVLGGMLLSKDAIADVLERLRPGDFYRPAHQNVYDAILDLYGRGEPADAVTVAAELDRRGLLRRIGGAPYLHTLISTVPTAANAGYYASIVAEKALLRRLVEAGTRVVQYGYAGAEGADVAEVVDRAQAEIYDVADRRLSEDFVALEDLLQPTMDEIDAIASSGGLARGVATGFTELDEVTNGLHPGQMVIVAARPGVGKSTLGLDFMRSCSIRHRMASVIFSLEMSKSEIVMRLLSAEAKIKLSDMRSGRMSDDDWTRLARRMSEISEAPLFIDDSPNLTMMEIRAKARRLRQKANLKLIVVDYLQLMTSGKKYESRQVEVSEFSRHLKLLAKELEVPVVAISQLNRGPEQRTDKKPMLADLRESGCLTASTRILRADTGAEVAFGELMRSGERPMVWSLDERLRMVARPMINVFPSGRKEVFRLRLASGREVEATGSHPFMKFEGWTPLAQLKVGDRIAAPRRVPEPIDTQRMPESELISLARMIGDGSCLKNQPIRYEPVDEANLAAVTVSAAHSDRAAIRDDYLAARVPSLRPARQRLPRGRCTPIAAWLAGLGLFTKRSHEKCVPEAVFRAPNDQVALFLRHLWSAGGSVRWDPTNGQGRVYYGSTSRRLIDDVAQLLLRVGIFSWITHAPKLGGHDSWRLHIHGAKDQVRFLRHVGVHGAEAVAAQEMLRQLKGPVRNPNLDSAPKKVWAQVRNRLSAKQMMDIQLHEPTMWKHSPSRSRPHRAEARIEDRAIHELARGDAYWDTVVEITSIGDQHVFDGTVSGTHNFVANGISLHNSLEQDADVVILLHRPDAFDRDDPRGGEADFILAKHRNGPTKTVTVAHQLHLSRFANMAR
The assay can be described thus: DnaB intein splicing inhibitors, dose response, biochemical, cell-free fluorescence (AID 449749). It is filed as functional.

The target in assay [8] is T4, Hexokinase HKDC1. The assay can be described thus: HKDC1 hexokinase inhibitors, SAR follow-up, biochemical, set 2 (AID 588355). It is filed as functional.
In assay [9] the target is Cystic fibrosis transmembrane conductance regulator/Golgi-associated PDZ and coiled-coil motif-containing protein (Homo sapiens, UniProt P13569+Q9HD26). Briefly: CAL PDZ peptide-binding inhibitors, dose response, biochemical, fluorescence polarization, Cerulean-tagged CAL PDZ, cherry-picks (AID 504773).
Sequence of Cystic fibrosis transmembrane conductance regulator/Golgi-associated PDZ and coiled-coil motif-containing protein (P13569 whole entry, other chains not shown): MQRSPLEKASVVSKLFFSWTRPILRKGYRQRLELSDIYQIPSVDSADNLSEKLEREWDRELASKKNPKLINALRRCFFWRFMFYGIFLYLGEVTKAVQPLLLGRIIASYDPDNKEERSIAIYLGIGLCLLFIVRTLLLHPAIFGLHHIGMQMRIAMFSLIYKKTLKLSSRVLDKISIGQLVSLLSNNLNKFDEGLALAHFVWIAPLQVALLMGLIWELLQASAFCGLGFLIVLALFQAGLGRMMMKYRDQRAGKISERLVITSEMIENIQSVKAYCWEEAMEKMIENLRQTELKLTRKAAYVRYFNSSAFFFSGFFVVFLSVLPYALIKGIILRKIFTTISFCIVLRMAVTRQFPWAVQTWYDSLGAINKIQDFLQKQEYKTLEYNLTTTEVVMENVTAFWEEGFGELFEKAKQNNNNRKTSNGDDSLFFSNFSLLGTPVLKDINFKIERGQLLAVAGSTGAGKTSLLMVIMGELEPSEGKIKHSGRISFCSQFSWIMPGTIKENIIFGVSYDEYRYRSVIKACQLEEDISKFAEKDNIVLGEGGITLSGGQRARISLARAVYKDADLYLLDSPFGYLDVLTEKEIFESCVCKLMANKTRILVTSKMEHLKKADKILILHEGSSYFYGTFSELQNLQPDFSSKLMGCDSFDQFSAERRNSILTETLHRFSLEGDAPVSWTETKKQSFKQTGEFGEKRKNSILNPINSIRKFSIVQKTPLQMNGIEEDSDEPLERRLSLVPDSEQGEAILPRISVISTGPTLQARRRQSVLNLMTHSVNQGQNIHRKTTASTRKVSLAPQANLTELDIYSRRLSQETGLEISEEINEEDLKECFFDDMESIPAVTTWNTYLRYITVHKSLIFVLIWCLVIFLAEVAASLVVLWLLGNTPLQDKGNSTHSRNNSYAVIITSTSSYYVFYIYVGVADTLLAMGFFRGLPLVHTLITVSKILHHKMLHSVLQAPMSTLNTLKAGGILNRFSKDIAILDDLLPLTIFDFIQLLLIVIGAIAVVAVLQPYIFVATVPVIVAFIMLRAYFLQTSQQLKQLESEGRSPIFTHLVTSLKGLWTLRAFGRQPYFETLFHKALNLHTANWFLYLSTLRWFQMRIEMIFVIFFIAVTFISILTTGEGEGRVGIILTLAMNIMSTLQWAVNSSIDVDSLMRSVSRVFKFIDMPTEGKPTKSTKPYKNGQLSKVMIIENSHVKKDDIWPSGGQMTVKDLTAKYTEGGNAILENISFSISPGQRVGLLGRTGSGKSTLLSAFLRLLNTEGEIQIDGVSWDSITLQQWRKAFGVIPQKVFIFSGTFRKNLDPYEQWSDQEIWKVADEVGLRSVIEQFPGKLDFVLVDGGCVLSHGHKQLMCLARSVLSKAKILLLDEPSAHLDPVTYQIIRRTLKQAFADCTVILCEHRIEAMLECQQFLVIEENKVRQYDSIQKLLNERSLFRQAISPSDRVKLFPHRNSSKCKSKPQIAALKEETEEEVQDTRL

Structures are written as SMILES. The source made the active and inactive calls.

In general, AC50 refers to the midpoint of the concentration-response curve, whichever way the signal moves. One may read the EC50 as the concentration giving half of the maximal effect. As usually defined, the IC50 is the midpoint of a concentration-inhibition curve. Turning to `CC(=O)NC1C(=O)N(CCN2CCOCC2)c2ccc(Br)cc21` (centres undefined), the half-maximal activity concentration (AC50) was 12.6 µM (active) in assay [1], 82.6 µM (active) in assay [3], 14.3 µM (active) in [7] and 24.8 µM (active) in [9]. Moreover, in [2], the half-maximal effective concentration (EC50) was 11 µM (active). Further, the IC50 in [4] was 16.3 µM (inactive); in assay [5], 6.88 µM (active); in assay [6] it was 5.24 µM (active); in [8], 8.67 µM (active).
